What was measured:
[1] = chemical stability on standing / by HPLC during work-up; type: physicochemical; conditions: kept at room temperature overnight
Experimental: The process was repeated. The mother liquor materials were combined. A 15-g portion of the mother liquor material (a syrupy liquid) was subjected to a water-acid-base extraction by dissolving the mother liquor in 50 mL of ethyl acetate and washing with water then with 1N HCl (2×). The ethyl acetate layer contained 2-((2-ethoxyphenoxy)methyl)morpholine, unreacted BOC compound 5, and a trace of the desired compound. The HCl solution was mainly the desired amine 6 HCl salt plus some 2-((2-ethoxyphenoxy)methyl)morpholine and a minor impurity. This solution was made alkaline with sodium bicarbonate, extracted with dichloromethane (3×) washed with brine, and dried over magnesium sulfate. […] The material was kept at room temperature overnight whereupon it decomposed.
The ethyl acetate solution of the free base was treated with a solution of 150 mg of maleic acid in 2 mL of isopropanol. […] The material was dissolved in dichloromethane, washed with water, and evaporated to give 374 mg of the maleate as an oil.

[2] = relative to the (R)-(+)-isomer; J. Med. Chem. 1976, 19(8), 1074; cited from earlier work

stability of the isolated material [1] | Compound | pharmacological activity as compared to the (R)-(+)-isomer [2]
decomposed | CCOc1ccccc1OC[C@@H]1CN(C(=O)OC(C)OC(=O)[C@@H](N)C(C)C)CCO1.Cl (mixture of isomers) [Compound 6, 1-[(S)-2-Amino-3-methylbutyroxy]ethyl (S)-2-[(o-ethoxyphenoxy)methyl]-4-morpholinecarboxylate, hydrochloride] | 
 | CCOc1ccccc1OC[C@@H]1CNCCO1 [(S)-enantiomer, (S)-2-((2-ethoxyphenoxy)methyl)morpholine] | five times

Source: US11964951B2, “Process of making derivatives of substituted morpholines” (Supernus Pharmaceuticals, Inc., priority 2022, dated 2024)
